Here are results for 29 molecules from patent US10738024B2, “Compounds for treatment of angiogenesis-mediated diseases” (Indiana University Research and Technology Corporation, priority 2013, dated 2020).

One assay deals with HUVECs. The experiment in a line: ALAMARBLUE proliferation assay in HUVECs. In kind it is cell-based, human. Particulars: for GI50: Homo sapiens, HUVEC, 48 h, 50% growth inhibitory concentration, alamarBlue. Here is the method: (§1) Particularly, in a 96-well clear bottom black plate, cells (2,500 cells per well) were seeded in a total volume of 100 μL EGM-2. After 24 hours of incubation of the plate at 37° C. and 5% CO2, a DMSO solution of synthetic cremastranone (1) or SH-11052 (2) was added in the concentration range of 0.5 nM to 500 μM (final DMSO concentration=1%). The plate was then further incubated for 48 hours before adding 11.1 μL of ALAMARBLUE® reagent to each well. Four hours after the addition of ALAMARBLUE®, fluorescence readings with excitation and emission wavelengths of 560 nm and 590 nm, respectively, were taken and the data were analyzed in GraphPad Prism software (v. 6.0). Dose response curves were generated and the GI50 values were calculated using the following equation: Y=100/(1+10^(X−Log GI50)).
(§2) For proliferation assays, cells (2500 per well) were seeded in a 96-well clear bottom black polystyrene plate in a total volume of 100 μL. HUVECs and HRECs were grown in EGM-2 and CSC+ media respectively, while 92-1 and Y79 cells were maintained in RPMI+10% FBS, penicillin/streptomycin and RB medium (IMDM+10% FBS+penicillin/streptomycin+10 μg/mL insulin+55 μM β-mercaptoethanol) respectively. After 24 hours of incubation of the plate at 37° C., the compounds were dissolved in DMSO and added in the concentration range of 500 μM to 0.5 nM. The plate was then incubated at 37° C. and 5% CO2 conditions for 48 hours before adding 11.1 μL of alamar blue reagent for each well. Four hours after the addition of ALAMARBLUE® reagent, fluorescence readings with excitation and emission wavelengths of 560 nm and 590 nm respectively were taken and the data was analyzed in GraphPad Prism software. The dose response curves were generated and the GI50 values were calculated using the equation: Y=100/(1+10^(X−Log GI50)) (Table 1).
For orientation: Resazurin is reduced to fluorescent resorufin, in cell work by metabolically active cells.

The next assay has as its system HRECs. The experiment in a line: ALAMARBLUE proliferation assay in HRECs. The assay is classed as cell-based, human. Particulars: for GI50: Homo sapiens, HREC, 50% growth inhibitory concentration, 48 hours, alamarBlue, read-out: GI50 HREC. Here is the method:
as §1, §2

The test system of assay [1] is Y-79 retinoblastoma cells. Put plainly: ALAMARBLUE proliferation assay in Y-79 retinoblastoma cells. The assay is classed as cell-based. Particulars: 50% growth inhibitory concentration, 48 hours. Here is the method:
as §2

For assay [2], the system named is 92-1 uveal melanoma cells. The experiment in a line: ALAMARBLUE proliferation assay in 92-1 uveal melanoma cells. Particulars: 50% growth inhibitory concentration, 48 hours, alamarBlue. The assay is classed as cell-based. Here is the method: as §2

One may read the GI50 as the concentration that inhibits growth by half.

Turning to `COC(=O)c1cc(CC2COc3cc(OC)c(OC)c(OC)c3C2=O)ccc1OC` (stereo not drawn) [Compound 6d], the GI50 in the assay with HUVECs is 27 µM; with HRECs, 13 µM; in assay [1], 40 µM; in assay [2] it was more than 250 µM.

`COC(=O)c1cc(/C=C2\COc3cc(OC)c(OC)c(OC)c3C2=O)ccc1O` [Compound 11o]: the 50% growth inhibitory concentration (GI50) in the assay on HUVECs stood at 2 µM; in the assay on HRECs, 4.7 µM; in assay [1], 2.3 µM; in assay [2], 8.2 µM.

As for `COc1cc2c(c(OC)c1OC)C(=O)/C(=C/c1ccc(O)c(O)c1)CO2` [Compound 11n], the GI50 with HUVECs worked out at 4.1 µM; in the assay on HRECs, 6.4 µM; in assay [1], 13 µM; in assay [2], 13.7 µM.

Turning to `COc1ccc(CC2(CO)COc3cc(OC)c(OC)c(OC)c3C2=O)cc1O` (stereo not drawn) [Compound 5, 3-(3′-hydroxy-4′-methoxybenzyl)-3-(hydroxymethyl)-5,6,7-trimethoxychroman-4-one], the GI50 (in the assay with HUVECs; with HRECs; in assay [1]; in assay [2]) was more than 100 µM throughout.

Consider `COc1cc2c(c(OC)c1OC)C(=O)/C(=C/c1ccc(OCc3ccccc3)c(OCc3ccccc3)c1)CO2` [Compound 11t], for which the GI50 in the assay on HUVECs is 64 µM; in the assay with HRECs it was 160 µM; in assay [1], 109 µM; in assay [2], more than 250 µM.

As for `COc1ccc(/C=C2\COc3cc(OC)c(OC)c(OC)c3C2=O)cc1F` [Compound 11s], the GI50 in the assay with HUVECs worked out at 7.6 µM; in the assay with HRECs, 3.2 µM; in assay [1], 10 µM; in assay [2] it was 7 µM.

Regarding `COc1cccc(/C=C2\COc3cc(OC)c(OC)c(OC)c3C2=O)n1` [Compound 11f], the GI50 with HUVECs turned out to be 16 µM; with HRECs it was 17 µM; in assay [1], 25 µM; in assay [2] it was 25 µM.

With `COc1ccc(CC2COc3cc(OC)c(O)c(O)c3C2=O)cc1OC(=O)c1ccccc1` (stereo not drawn) [Compound 8c], the GI50 in the assay on HUVECs is more than 100 µM; in the assay on HRECs, more than 100 µM; in assay [1], more than 50 µM; in assay [2] it was 51 µM.

As for `COc1cc(OC)c2c(c1)OCC(Cc1ccc(OC)c(O)c1)C2=O` (stereo not drawn) [Compound 15b], the GI50 is 6.8 µM in the assay on HUVECs, 1.6 µM with HRECs, 4.2 µM in assay [1] and more than 250 µM in assay [2].

As for `COc1ccc(CC2COc3cc(O)c(OC)c(O)c3C2=O)cc1O` (racemic) [Compound 1, 5,7-dihydroxy-3-(3-hydroxy-4-methoxybenzyl)-6-methoxychroman-4-one], the GI50 with HUVECs came out at 0.377 µM; in the assay with HRECs, 0.217 µM; in assay [1], 47 µM; in assay [2] it was 9.8 µM. The “in vitro anti-proliferative activity in HUVECs” value in the assay on HUVECs (result in words, FIGS. 6A, 6C) is on record as “demonstrated in vitro anti-proliferative activity”. In addition, in the assay on HRECs (result in words, FIGS. 6B, 6D, 14), the “in vitro anti-proliferative activity in HRECs” value was “demonstrated in vitro anti-proliferative activity”.

For `COc1ccc(/C=C2\Cc3cc(OC)c(OC)c(OC)c3C2=O)cc1O` [Compound 13, (E)-2-(3-hydroxy-4-methoxybenzylidene)-5,6,7-trimethoxy-2,3-dihydro-1H-inden-1-one], the GI50 in the assay with HUVECs came out at 19 µM; with HRECs, 30 µM; in assay [1], 49 µM; in assay [2], 80 µM.

On to `COc1cc(/C=C2\COc3cc(OC)c(OC)c(OC)c3C2=O)ccc1OCc1ccccc1` [Compound 11d], for which the GI50 in the assay with HUVECs worked out at 114 µM; in the assay on HRECs, 53 µM; in assay [1], 39 µM; in assay [2], 23 µM.

As for `C#CCOc1cc(/C=C2\COc3cc(OC)c(OC)c(OC)c3C2=O)ccc1OC` [Compound 11g], the GI50 in the assay with HUVECs is 21 µM; with HRECs, 39 µM; in assay [1] it was 32 µM; in assay [2], 310 µM.

For the molecule `COc1cc(/C=C2\COc3cc(OC)c(OC)c(OC)c3C2=O)ccc1O` [Compound 11e], the GI50 in the assay on HUVECs amounted to 6 µM; in the assay on HRECs, 4 µM; in assay [1], 23 µM; in assay [2] it was 55 µM.

As to `COc1ccc(CC2COc3cc(O)c(O)c(O)c3C2=O)cc1O` (stereo not drawn) [Compound 8d, 5,6,7-trihydroxy-3-(3-hydroxy-4-methoxybenzyl)chroman-4-one], the GI50 with HUVECs is 124 µM; in the assay on HRECs, 135 µM; in assay [1], more than 500 µM; in assay [2], more than 500 µM.

On to `COC(=O)c1cc(/C=C2\COc3cc(OC)c(OC)c(OC)c3C2=O)ccc1OC` [Compound 11r], for which the GI50 with HUVECs is 3.2 µM; in the assay on HRECs, 5.5 µM; in assay [1] it was 6 µM; in assay [2], more than 100 µM.

Turning to `COc1cc(OC)c2c(c1)OC/C(=C\c1ccc(OC)c(O)c1)C2=O` [Compound 15a], the GI50 was 17.7 µM with HUVECs, 37 µM in the assay on HRECs, 13.5 µM in assay [1] and 78.5 µM in assay [2].

As for `COc1ccc(CC2COc3cc(OC)c(OC)c(O)c3C2=O)cc1O` (stereo not drawn) [Compound 8a], the GI50 was 44 µM with HUVECs, more than 100 µM in the assay with HRECs, more than 100 µM in assay [1] and more than 100 µM in assay [2].

With `COc1c(O)cc2occ(Cc3ccccc3)c(=O)c2c1O` [Compound 9b, 3-benzyl-5,7-dihydroxy-6-methoxy-4H-chromen-4-one], the GI50 (with HUVECs; with HRECs; in assay [1]; in assay [2]) was more than 100 µM throughout.

For `COc1cc2c(c(OC)c1OC)C(=O)CCO2` [Compound 10a, 5,6,7-trimethoxychromanone], the GI50 is more than 100 µM with HUVECs, more than 100 µM in the assay with HRECs, more than 500 µM in assay [1] and more than 500 µM in assay [2].

Take `COc1ccc(/C=C2\COc3cc(OC)c(OC)c(OC)c3C2=O)cc1OCC(=O)O` [Compound 11m]: the GI50 (with HUVECs; with HRECs; in assay [1]; in assay [2]) was more than 500 µM each time.

As to `COc1ccc(/C=C/C(=O)c2c(O)cc(OC)c(OC)c2OC)cc1OCc1ccccc1` [Compound 3a, (E)-3-(3′-benzyloxy-4′-methoxyphenyl)-1-(6-hydroxy-2,3,4-trimethoxyphenyl) prop-2-en-1-one], the GI50 with HUVECs is 94 µM; in the assay with HRECs, more than 100 µM; in assay [1], more than 100 µM; in assay [2], more than 100 µM.

As to `COc1cc(O)c(C(=O)/C=C/c2ccccc2)c(OC)c1OC` [Compound 3b], the GI50 (in the assay on HUVECs; in the assay with HRECs; in assay [1]; in assay [2]) was more than 100 µM in each case.

In the case of `COc1cc2c(c(OC)c1OC)C(=O)/C(=C/c1ccc(O)c(F)c1)CO2` [Compound 11p], the GI50 in the assay on HUVECs was determined as 9 µM; in the assay on HRECs, 19 µM; in assay [1], 22 µM; in assay [2], 30 µM.

For the molecule `COc1ccc(/C=C2\COc3cc(OC)c(OC)c(OC)c3C2=O)cc1OCc1ccccc1` [Compound 11b, (E)-3-(3′-benzyloxy-4′-methoxybenzylidene)-5,6,7-trimethoxychroman-4-one], the concentration for 50% growth inhibition (GI50) in the assay with HUVECs worked out at 4 µM; with HRECs, 6 µM; in assay [1] it was 15 µM.

Regarding `COc1ccc(CC2COc3cc(OC)c(OC)c(OC)c3C2=O)cc1O` (stereo not drawn) [Compound 6a, 3-(3′-hydroxy-4′-methoxybenzyl)-5,6,7-trimethoxychroman-4-one], the GI50 (in the assay with HUVECs; in the assay on HRECs; in assay [1]; in assay [2]) was more than 100 µM in each case.

Consider `COc1ccc(/C=C2\COc3cc(OC)c(OC)c(OC)c3C2=O)cc1[N+](=O)[O-]` [Compound 11h], for which the GI50 in the assay on HUVECs amounted to 11 µM; with HRECs, 4 µM; in assay [1], 44 µM; in assay [2], 13 µM.

With `COc1cc(/C=C2\COc3cc(OC)c(OC)c(OC)c3C2=O)cc(OC)c1OC` [Compound 11u], the GI50 is 10.4 µM with HUVECs, 16.6 µM with HRECs, 9 µM in assay [1] and more than 250 µM in assay [2].

As to `C=CCOc1cc(/C=C2\COc3cc(OC)c(OC)c(OC)c3C2=O)ccc1OC` [Compound 11c, (E)-3-(3′-allyloxy-4′-methoxybenzylidene)-5,6,7-trimethoxychroman-4-one], the GI50 in the assay on HUVECs turned out to be 11 µM; with HRECs it was 4 µM; in assay [1], 3 µM; in assay [2], 3.2 µM.
